According to the supplement of paper PMC11061612:

Experiments:
[1] = compound: CC(=O)O[C@H]1C(=O)[C@@]2(C)[C@H]([C@H](OC(=O)c3ccccc3)[C@]3(O)C[C@H](OC(=O)[C@H](O)[C@@H](NC(=O)c4ccccc4)c4ccccc4)C(C)=C1C3(C)C)[C@]1(OC(C)=O)CO[C@@H]1C[C@@H]2O [Paclitaxel]; settings: max 3 µM
Method in brief: (§1)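 Cancer cell lines were dosed for 72 hours (final DMSO typically 0.2%) after 24 hours at 37°C and 5% CO2 in 1536-well plates containing 7.5 μl DMEM/F12 or RPMI with 10% FBS. Viability came from CellTiter-Glo 2.0 luminescence, scaled between blank-well and DMSO-well means, and dose responses were fitted to a two-parameter logistic curve with a non-linear mixed effects model. The single-agent IC50 was obtained from this fit.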

[2] = compound: C[C@@H](Oc1cc(-c2cnn(C3CCNCC3)c2)cnc1N)c1c(Cl)ccc(F)c1Cl [Crizotinib]; settings: max 10 µM
Method in brief: as §1

[3] = compound: CC(C)n1c(=O)n(C)c2cnc3cc(F)c(-c4ccc(OCCCN5CCCCC5)nc4)cc3c21 [AZD1390]; settings: max 0.3 µM
Method in brief: as §1

[4] = compound: CCN(CCO)CCCOc1ccc2c(Nc3cc(CC(=O)Nc4cccc(F)c4)[nH]n3)ncnc2c1 [AZD2811]; settings: max 1 µM
Method in brief: as §1

[5] = compound: CN(C)CCCOc1ccc(-c2ccc3ncc4c(c3c2)n(C2CCOCC2)c(=O)n4C)cn1 [AZD0156]; settings: max 3 µM
Method in brief: as §1

[6] = compound: Cn1cnc2c(F)c(Nc3ccc(Br)cc3Cl)c(C(=O)NOCCO)cc21 [Selumetinib]; settings: max 10 µM
Method in brief: as §1

[7] = compound: COc1cccc(OCCCN)c1-c1cc(Nc2cnc(C#N)cn2)n[nH]1 [Prexasertib]; settings: max 1 µM
Method in brief: as §1

[8] = compound: Cc1nc(-c2cn3c(n2)-c2ccc(-c4cnn(C(C)(C)C(N)=O)c4)cc2OCC3)n(C(C)C)n1 [Taselisib]; settings: max 10 µM
Method in brief: as §1

[9] = compound: CC1(C)CCC(CN2CCN(c3ccc(C(=O)NS(=O)(=O)c4ccc(NCC5CCOCC5)c([N+](=O)[O-])c4)c(Oc4cnc5[nH]ccc5c4)c3)CC2)=C(c2ccc(Cl)cc2)C1 [Venetoclax]; settings: max 1 µM
Method in brief: as §1

[10] = compound: CN(CC[C@H](CSC1=CC=CC=C1)NC2=C(C=C(C=C2)S(=O)(=O)NC(=O)C3=CC=C(C=C3)N4CCC(CC4)[C@H](C5=CC=CC=C5C6=CC=C(C=C6)Cl)O)S(=O)(=O)C(F)(F)F)CCO [AZD4320]; settings: max 1 µM
Method in brief: as §1

[11] = compound: NC1(c2ccc(-c3nc4ccn5c(=O)[nH]nc5c4cc3-c3ccccc3)cc2)CCC1 [MK-2206]; settings: max 10 µM
Method in brief: as §1

[12] = compound: C[C@@H](c1ccc2nccn2c1)n1nnc2ncc(-c3cnn(C)c3)nc21 [Savolitinib]; settings: max 1 µM
Method in brief: as §1

[13] = compound: CC1=CN2[C@@H](C1)C=NC3=CC(=C(C=C3C2=O)OC)OCCCCCOC4=C(C=C5C(=C4)N=C[C@@H]6CC(=CN6C5=O)C)OC [SG3199]; settings: max 0.001 µM
Method in brief: as §1

[14] = compound: C[C@@H](Nc1cc(F)cc(F)c1)c1cc(C(=O)N(C)C)cc2c(=O)cc(N3CCOCC3)oc12 [AZD8186]; settings: max 10 µM
Method in brief: as §1

[15] = compound: COc1nnc2ccc(N3CCC(c4ccc(OCCN5CCN(C)C(=O)[C@H]5C)cc4)CC3)nn12 [AZD5153]; settings: max 1 µM
Method in brief: as §1

[16] = compound: C=CCn1c(=O)c2cnc(Nc3ccc(N4CCN(C)CC4)cc3)nc2n1-c1cccc(C(C)(C)O)n1 [AZD1775]; settings: max 3 µM
Method in brief: as §1

[17] = compound: CS(=O)(=O)CCNCc1ccc(-c2ccc3ncnc(Nc4ccc(OCc5cccc(F)c5)c(Cl)c4)c3c2)o1 [Lapatinib]; settings: max 10 µM
Method in brief: as §1

[18] = compound: COc1cc([C@@H]2c3cc4c(cc3[C@@H](O[C@@H]3O[C@@H]5CO[C@@H](C)O[C@H]5[C@H](O)[C@H]3O)[C@H]3COC(=O)[C@H]23)OCO4)cc(OC)c1O [Etoposide]; settings: max 10 µM
Method in brief: as §1

[19] = compound: O=C(Nc1ccc2[nH]nc(-c3ccncc3)c2c1)[C@@H]1CCN(CC(=O)N2CCN(c3ccc(-c4ncccn4)cc3)CC2)C1; settings: max 5 µM
Method in brief: as §1

[20] = compound: CCc1c2c(nc3ccc(O)cc13)-c1cc3c(c(=O)n1C2)COC(=O)[C@]3(O)CC [SN-38]; settings: max 0.3 µM
Method in brief: as §1

[21] = compound: C1CC(C1)(C(=O)[O-])C(=O)[O-].N.N.[Pt+2] [Carboplatin]; settings: max 10 µM
Method in brief: as §1

[22] = compound: CC(=O)Nc1cccc(-n2c(=O)n(C3CC3)c(=O)c3c(Nc4ccc(I)cc4F)n(C)c(=O)c(C)c32)c1 [Trametinib]; settings: max 1 µM
Method in brief: as §1

[23] = compound: COc1cccc2c1C(=O)c1c(O)c3c(c(O)c1C2=O)C[C@@](O)(C(=O)CO)C[C@@H]3O[C@H]1C[C@H](N)[C@H](O)[C@H](C)O1 [Doxorubicin]; settings: max 1 µM
Method in brief: as §1

[24] = compound: Nc1ccn([C@@H]2O[C@H](CO)[C@@H](O)C2(F)F)c(=O)n1 [Gemcitabine]; settings: max 0.3 µM
Method in brief: as §1

[25] = compound: C1CN(CCC1(C(=O)N[C@@H](CCO)C2=CC=C(C=C2)Cl)N)C3=NC=NC4=C3C=CN4 [AZD5363]; settings: max 10 µM
Method in brief: as §1

[26] = compound: O=c1[nH]cc(F)c(=O)[nH]1 [5-Fluorouracil]; settings: max 20 µM
Method in brief: as §1

[27] = compound: CC1=C(C(=CC=C1)Cl)NC(=O)C2=CN=C(S2)NC3=CC(=NC(=N3)C)N4CCN(CC4)CCO [Dasatinib]; settings: max 2 µM
Method in brief: as §1

[28] = compound: N#Cc1cnc(Nc2cc(NC[C@H]3CNCCO3)c(C(F)(F)F)cn2)cn1 [SRA737]; settings: max 10 µM
Method in brief: as §1

[29] = compound: CC(=O)c1c(C)c2cnc(Nc3ccc(N4CCNCC4)cn3)nc2n(C2CCCC2)c1=O [Palbociclib]; settings: max 10 µM
Method in brief: as §1

[30] = compound: COc1cc2ncnc(Nc3ccc(F)c(Cl)c3)c2cc1OCCCN1CCOCC1 [Gefitinib]; settings: max 10 µM
Method in brief: as §1

[31] = compound: Cc1c2c(nn1C)CSCc1cc(n(C)n1)CSc1cc(c3ccccc3c1)OCCCc1c(C(=O)O)n(C)c3c-2c(Cl)ccc13 [AZD5991]; settings: max 1 µM
Method in brief: as §1

[32] = compound: O=C(c1cc(Cc2n[nH]c(=O)c3ccccc23)ccc1F)N1CCN(C(=O)C2CC2)CC1 [Olaparib]; settings: max 10 µM
Method in brief: as §1

[33] = compound: COc1cc(Nc2ncc3c(n2)-c2ccc(Cl)cc2C(c2c(F)cccc2OC)=NC3)ccc1C(=O)O [Alisertib]; settings: max 10 µM
Method in brief: as §1

[34] = compound: C[C@@H]1COCCN1C2=NC(=NC(=C2)C3(CC3)[S@](=N)(=O)C)C4=C5C=CNC5=NC=C4 [AZD6738]; settings: max 10 µM
Method in brief: as §1

[35] = compound: Cc1cc2ncnn2cc1Nc1ncc2c(n1)n(C1CCOCC1)c(=O)n2C [AZD7648]; settings: max 10 µM
Method in brief: as §1

Row | Cell Line | IC50, cell viability 72 h [1] [µM] | IC50, cell viability 72 h [2] [µM] | IC50, cell viability 72 h [3] [µM] | IC50, cell viability 72 h [4] [µM] | IC50, cell viability 72 h [5] [µM] | IC50, cell viability 72 h [6] [µM] | IC50, cell viability 72 h [7] [µM] | IC50, cell viability 72 h [8] [µM] | IC50, cell viability 72 h [9] [µM] | IC50, cell viability 72 h [10] [µM] | IC50, cell viability 72 h [11] [µM] | IC50, cell viability 72 h [12] [µM] | IC50, cell viability 72 h [13] [µM] | IC50, cell viability 72 h [14] [µM] | IC50, cell viability 72 h [15] [µM] | IC50, cell viability 72 h [16] [µM] | IC50, cell viability 72 h [17] [µM] | IC50, cell viability 72 h [18] [µM] | IC50, cell viability 72 h [19] [µM] | IC50, cell viability 72 h [20] [µM] | IC50, cell viability 72 h [21] [µM] | IC50, cell viability 72 h [22] [µM] | IC50, cell viability 72 h [23] [µM] | IC50, cell viability 72 h [24] [µM] | IC50, cell viability 72 h [25] [µM] | IC50, cell viability 72 h [26] [µM] | IC50, cell viability 72 h [27] [µM] | IC50, cell viability 72 h [28] [µM] | IC50, cell viability 72 h [29] [µM] | IC50, cell viability 72 h [30] [µM] | IC50, cell viability 72 h [31] [µM] | IC50, cell viability 72 h [32] [µM] | IC50, cell viability 72 h [33] [µM] | IC50, cell viability 72 h [34] [µM] | IC50, cell viability 72 h [35] [µM]
1 | KU812 (Chronic Myelogenous Leukemia) | 0.0176 | 0.26 | > 0.3 | 0.471 | > 3 | 0.26 | 0.0205 | > 10 | > 1 | 0.267 | 4.07 | > 1 | > 0.001 | > 10 | 0.0366 | 0.298 | > 10 | 9.69 | 0.16 | 0.0374 | > 10 | 0.0105 | 0.567 | 0.0271 | > 10 | > 20 | < 0.002 | 9.86 | 4.05 | > 10 | 0.235 | > 10 | 0.701 | 2.15 | > 10
2 | M059J (Glioblastoma) | 0.0176 | > 10 | > 0.3 | > 1 | > 3 | > 10 | 0.241 | > 10 | > 1 | > 1 | > 10 | > 1 | > 0.001 | > 10 | 0.164 | 0.933 | > 10 | 2.59 | > 5 | 0.0141 | > 10 | > 1 | 0.23 | 0.0909 | > 10 | > 20 | 1.39 | > 10 | > 10 | > 10 | > 1 | > 10 | 4.06 | > 10 | > 10
